Measured values as given in ChEMBL document CHEMBL1122015, “Rigid analogues of dopamine: synthesis and interaction of 6-exo- and 6-endo-(3',4'-dihydroxyphenyl)-2-azabicyclo[2.2.2]octanes with dopamine uptake sites and receptors” (J Med Chem, 1982).

Legend:
Rattus norvegicus [1] = species on record: Rattus norvegicus; experiment: Inhibition of the uptake of [3H]DA by corpus striatum synaptosomes of reserpine-pretreated rat; format: functional
Rattus norvegicus [2] = species on record: Rattus norvegicus; experiment: Reported to half-maximally effective concentration of reserpine-pretreated rat
Rattus norvegicus [3] = species on record: Rattus norvegicus; experiment: Effect on DA-sensitive adenylate cyclase activity in rat striatal homogenates; format: functional

SMILES | Activity (Rattus norvegicus [3]) [%] | IC50 (Rattus norvegicus [1]) [µM] | other results
N[C@H]1C[C@@H]1c1ccccc1 (racemic) |  |  | IC50 (Rattus norvegicus [1]; Rattus norvegicus, Corpus striatum): 0.9 µM; IC50 (Rattus norvegicus [2]): 1700 nM
NCCc1ccc(O)c(O)c1 | 210 |  | 
Oc1ccc([C@H]2CC3CC[C@H]2NC3)cc1O (stereo in doubt; 1) [listing 1 of 2 here] |  | 110 | 
Oc1ccc([C@H]2CC3CC[C@H]2NC3)cc1O (stereo in doubt; 1) [listing 2 of 2 here] | 117 |  | 
Oc1ccc([C@H]2CC3CC[C@H]2NC3)cc1O (relative stereo) [listing 1 of 2 here] | 93 |  | 
Oc1ccc([C@H]2CC3CC[C@H]2NC3)cc1O (relative stereo) [listing 2 of 2 here] |  | 32 | 
